Experimental findings from the Deep4Chem optical property database are described below.

This data set is described as follows: solvent given as SMILES.

`CC1(C)c2ccccc2N(c2cc(C#N)c(C#N)cc2N2c3ccccc3C(C)(C)c3ccccc32)c2ccccc21` returned an absorption maximum (in c1ccc2c(c1)c1ccccc1n2-c1ccc(-c2ccc(-n3c4ccccc4c4ccccc43)cc2)cc1) of 494 nm.
For the compound `N#Cc1c(C#N)c2ccccc2c2ccccc12`, the absorption maximum (in ClC(Cl)Cl) is listed as 346 nm.
For the compound `COc1ccc2c(c1)C(=O)c1cc(OC)cc(OC)c1-2`, the absorption maximum reads like this: (in C1CCCCC1) 478 nm; (in CC#N) 491 nm; (in CCO) 492 nm.
Where the note is “in Cc1ccccc1”, `C(#Cc1ccc2ncsc2c1)c1ccc(N(c2ccccc2)c2ccccc2)cc1` returned an absorption maximum of 365 nm.
In the case of `CCCCCCCCCCCCCCCCCCN1C(=O)c2cccc3c(OCCN(C)C)ccc(c23)C1=O`, the absorption maximum was found to be 363 nm (in CC#N); 362 nm (in CC(C)=O); 362 nm (in CCO); 363 nm (in CCOC(C)=O); 359 nm (in CCOCC); 364 nm (in CN(C)C=O). The same compound had an absorption maximum (in ClCCl) of 363 nm.
As for `CCOc1ccc(/C=C/C=C/C=C/c2ccc([N+](=O)[O-])cc2)cc1`, the absorption maximum by setting is: (in CC1CCCCC1) 414 nm; (in CC#N) 412 nm; (in Cc1ccccc1) 419 nm; (in ClCCl) 420 nm.
On to `COc1ccc(C2=N/C(=C\c3ccc(C#N)cc3)C(=O)O2)cc1OC`, for which the absorption maximum (in C1COCCO1) was 393 nm.
`F[B-]1(F)N(c2ccccc2)c2cccc3ccc4ccc[n+]1c4c23` had an absorption maximum (in ClCCl) of 465 nm.
As for `N#CC(C#N)=Cc1ccc2c(c1)c1ccccc1n2-c1cc2ccccc2c2ccccc12`, the absorption maximum reads like this: (in CC#N) 395 nm; (in CCCCC) 393 nm; (in Cc1ccccc1) 402 nm; (in ClCCl) 406 nm.
For the compound `COC(=O)c1ccc(/C=C2\N=C(c3ccc([N+](=O)[O-])cc3)NC2=O)cc1`, the absorption maximum (in C1COCCO1) worked out at 405 nm.
In the case of `O=P1(c2ccccc2)C(c2cc(C(F)(F)F)cc(C(F)(F)F)c2)=Cc2c3ccc4cccc5ccc(c6cc(-c7ccccc7)n1c26)c3c45` (centres undefined), the absorption maximum runs as follows: (in C1CCCCC1) 451 nm; (in C1CCOC1) 451 nm; (in C1COCCO1) 448 nm; (in CC#N) 445 nm; (in CC(C)=O) 446 nm; (in CO) 444 nm. Moreover, the absorption maximum is, setting by setting: (in Cc1ccccc1) 453 nm; (in ClC(Cl)Cl) 452 nm; (in ClCCl) 450 nm.
For `CC(C)(C)c1ccc2c(c1)oc1nc3oc4ccc(-n5c6ccccc6c6ccccc65)cc4c3cc12`, the absorption maximum (in ClC(Cl)Cl) is given as 350 nm.
For the compound `CN(C)c1ccc2c3c(ccc2c1)C(=O)CCC3`, the absorption maximum is, setting by setting: (in C1CCCCC1) 347 nm; (in CC#N) 356 nm; (in CC(C)O) 368 nm; (in CCC(C)=O) 356 nm; (in CCO) 369 nm; (in CCOC(C)=O) 353 nm. Moreover, the absorption maximum reads like this: (in CS(C)=O) 363 nm; (in Cc1ccccc1) 353 nm; (in ClCCl) 358 nm; (in Clc1ccccc1) 357 nm.
As to `N#Cc1c(-n2c3ccccc3c3ccccc32)cc(N2c3ccccc3C(c3ccccc3)(c3ccccc3)c3ccccc32)cc1-n1c2ccccc2c2ccccc21`, the absorption maximum (in Cc1ccccc1) came out at 368 nm.
On to `CCOC(=O)CN1C(=O)C2=C(c3ccc(C#N)cc3)N(CC(=O)OCC)C(=O)C2=C1c1ccc(C#N)cc1`, for which the absorption maximum was 473 nm (in CC#N), 480 nm (in CS(C)=O) and 482 nm (in Cc1ccccc1).
In turn, `Cc1cc(=O)[nH]c(=O)[nH]1` registered an absorption maximum (in CC#N) of 256 nm.
